Earlier results on 5 molecules are cited in US20190187141A1, “Biomarkers for Detection and Treatment of Mast Cell Activity-Associated Disorders” (Arete Discoveries, Inc., priority 2016, published 2019).

Counter-ions that a name gives are not always drawn.

The subject of one data set is cultured mast cells. The following applies: pannexin1 hemichannel dependent mechanism.
In data set [1] the test system is mast cells. The following applies: AD animal models; connexin 43 and pannexin1 hemichannel dependent.
Data set [2] relates to lymphocytes, macrophages, mast cells and dendritic cells.
In data set [3] the test system is mast cells. The following applies: in vitro.
The conditions of data set [4]: open label, 20 MS patients.
The test system of data set [5] is mast cells.
The conditions of data set [6]: phase II trial, 35 progressive MS patients.
For data set [7] the following is noted: phase II study.

Turning to “Amyloid beta (Aβ) peptide 25-35 (GSNKGAIIGLM; Amyloid-beta protein 42; UniProt P05067 696-706, looked up, fragment) [amyloid beta peptide fragment 25-35]”, the “degranulation of cultured mast cells” value in the data set with cultured mast cells was “causes rapid degranulation of cultured mast cells”. In addition, in the data set with mast cells [1], the “mast cell dye uptake and histamine release” value was “promotes both connexin 43 and pannexinl hemichannel dependent mast cell dye uptake and histamine release”.

Consider `Cc1ccc(NC(=O)c2ccc(CN3CCN(C)CC3)cc2)cc1Nc1nccc(-c2cccnc2)n1` [Imatinib], for which the “secretion of pro-inflammatory cytokines IFN-γ, TNF-α, IL-1β and IL-17 and MMPs” value in data set [2] is listed as “inhibiting”. The “anti-proliferative activity and immunomodulatory effects” value in data set [2] (lymphocytes, macrophages, mast cells and dendritic cells) was “exerts anti-proliferative activity and immunomodulatory effects”.

As for `COC(=O)/C=C/C(=O)OC` [dimethyl fumarate], the “apoptosis of mast cells” value in the data set with mast cells [3] is reported as “induces apoptosis of mast cells in vitro”.

On to `OCCOCCN1CCN(C(c2ccccc2)c2ccc(Cl)cc2)CC1` (centres unmarked) [hydroxyzine], for which the “neurological outcome in MS patients” value in data set [4] is “stability or improvement neurologically”. For the same molecule, the “degranulation of mast cells within the thalamus” value in the data set on EAE (EAE) was “inhibit”. In addition, the “progression and severity of EAE” value in the data set with EAE (in vivo) is “inhibit the progression and severity of EAE”.

Turning to `Cc1ccc(NC(=O)c2ccc(CN3CCN(C)CC3)cc2)cc1Nc1nc(-c2cccnc2)cs1` [masitinib], the “inhibition of survival, migration and activity of mast cells” value with mast cells [5] was “effectively inhibits the survival, migration and activity of mast cells”. In addition, in [6], the “efficacy in progressive MS” value is “some efficacy”. In addition, in data set [7], the “cognitive decline in AD patients” value was “some benefit in slowing cognitive decline”.
